Experimental data from US20020151599A1, “FORMULATIONS HAVING AN ANTIVIRAL ACTION” (priority 1999, published 2002).

Columns and labels:
[1] = solubility in solvents; format: physicochemical
Excerpt: By virtue of its solubility profile, the compound is readily miscible, in some cases using solubilizers, with oils, fats and emulsions and, in view of its profile of properties, can be used in combination with other known light protection filters. […] In view of the property profile of isoquercitrin, it is easy for the person skilled in the art to choose suitable solvents and additives depending on the desired preparation product. It is particularly easy to prepare emulsions, gels or emulsion care sticks with isoquercitrin. It is, however, also possible to prepare all other cosmetic formulations, such as ointments, creams, lotions, oils, sticks and sprays, and also pharmaceutical formulations in solid or liquid form using appropriate additives.

[2] = skin tolerability
[3] = tested on: herpes simplex viruses; conditions: compounds of the same aglycone compared; quercetin active only in very high doses, if at all; cited from earlier work

## O=c1c(O[C@@H]2O[C@H](CO)[C@@H](O)[C@H](O)[C@H]2O)c(-c2ccc(O)c(O)c2)oc2cc(O)cc(O)c12 [isoquercitrin]
[1]; ethanol or 1,2-propylene glycol
  solubility in polar solvents: particularly readily soluble
[1]; glycerol, forms a slightly cloudy solution
  solubility in glycerol: soluble in glycerol
[2]
  skin tolerance, toxic or allergic reaction: well tolerated by the skin

## O=c1c(O)c(-c2ccc(O)c(O)c2)oc2cc(O)cc(O)c12 [quercetin]
[3]
  antiviral effects: virtually no antiviral effects
